This passage reports IC50, Ki and pKi results from ChEMBL document CHEMBL3860077, “Synthesis and pharmacological evaluation of conformationally constrained glutamic acid higher homologues” (Bioorg Med Chem, 2016).

The nature of assay [1]: Displacement of [3H]-AMPA from AMPA receptor in Sprague-Dawley rat brain synaptic membranes after 30 mins by scintillation counting method. In general terms: Loss of bound radioactivity is the signal in a displacement assay; it reports binding, not function.
A short description of assay [2]: Displacement of [3H]-KAIN from kainic acid receptor in Sprague-Dawley rat brain synaptic membranes after 60 mins by scintillation counting method.
The target of another assay is Glutamate NMDA receptor. In words: Displacement of [3H]-CGP39653 from NMDA receptor in Sprague-Dawley rat brain synaptic membranes after 60 mins by scintillation counting method.
Assay [3] in a line: Displacement of [3H]-AMPA from AMPA receptor in rat cortical membranes by scintillation counting method. The format is cell membranes.
Assay [4] is described as follows: Displacement of [3H]-KAIN from kainic acid receptor in rat cortical membranes by scintillation counting method. The class given is cell membranes.

Bounds are passed on as bounds.

For orientation: IC50 means the concentration that inhibits the measured activity by half. Read a high IC50 as weaker potency. As usually defined, the Ki is the dissociation constant of the complex between target and ligand, obtained from inhibition or displacement. Higher therefore signals weaker binding. In general, pKi refers to the negative decadic logarithm of the Ki, by convention in mol/L. Read a low pKi as a high Ki.

As for `N[C@@H](C[C@@H]1CC(/C=C/C(=O)O)=NO1)C(=O)O` (racemic), the concentration for half-maximal inhibition (IC50) in assay [1] and in assay [2] was more than 100 µM throughout. Moreover, the inhibitory constant (Ki) on Glutamate NMDA receptor was more than 100 µM.
In assay [1], `N[C@@H](C[C@@H]1CC(CCC(=O)O)=NO1)C(=O)O` (racemic) gave a 50% inhibitory concentration (IC50) of more than 100 µM. In addition, in assay [2], the half-maximal inhibitory concentration (IC50) is more than 100 µM. At Glutamate NMDA receptor, this molecule returned a Ki of 13 µM and a pKi of 4.91.
Take `N[C@@H](C[C@H]1CC(c2ccccc2C(=O)O)=NO1)C(=O)O` (racemic): the concentration for half-maximal inhibition (IC50) in assay [1] was more than 100 µM. Further, the half-maximal inhibitory concentration (IC50) in assay [2] is more than 100 µM. Moreover, on Glutamate NMDA receptor, the Ki worked out at 22 µM and the pKi was found to be 4.69.
Consider `N[C@@H](C[C@@H]1CC(c2ccc(C(=O)O)cc2)=NO1)C(=O)O` (racemic), for which the half-inhibitory concentration (IC50) in assay [1] and in assay [2] was more than 100 µM each time. For the same molecule, the Ki at Glutamate NMDA receptor was more than 100 µM.
Regarding `N[C@@H](C[C@@H]1CC(c2cccc(C(=O)O)c2)=NO1)C(=O)O` (racemic), the concentration for half-maximal inhibition (IC50) in assay [1] and in assay [2] was more than 100 µM each time. Besides, the Ki on Glutamate NMDA receptor was 22 µM.
Turning to `N[C@@H](C[C@@H]1CC(C(=O)O)=NO1)C(=O)O` (racemic), the IC50 in assay [3] and in assay [4] was more than 100 µM each time.
With `N[C@@H](C[C@H]1CC(CCC(=O)O)=NO1)C(=O)O` (racemic), the IC50 in assay [1] and in assay [2] was more than 100 µM each time. Further, the Ki at Glutamate NMDA receptor is more than 100 µM.
As for `N[C@@H](C[C@@H]1CC(c2ccccc2C(=O)O)=NO1)C(=O)O` (racemic), the IC50 in assay [1] and in assay [2] was more than 100 µM each time. Moreover, the Ki at Glutamate NMDA receptor is 3.6 µM.
Regarding `N[C@@H](C[C@H]1CC(/C=C/C(=O)O)=NO1)C(=O)O` (racemic), the IC50 in assay [1] and in assay [2] was more than 100 µM each time. This molecule also displayed a Ki at Glutamate NMDA receptor of 68 µM.
Turning to `N[C@@H](C[C@H]1CC(C(=O)O)=NO1)C(=O)O` (racemic), the half-maximal inhibitory concentration (IC50) in assay [3] and in assay [4] was more than 100 µM in each case.
On to `N[C@@H](C[C@H]1CC(c2cccc(C(=O)O)c2)=NO1)C(=O)O` (racemic), for which the IC50 in assay [1] and in assay [2] was more than 100 µM each time. At Glutamate NMDA receptor, this molecule gave a Ki of 100 µM.
With `N[C@@H](C[C@H]1CC(c2ccc(C(=O)O)cc2)=NO1)C(=O)O` (racemic), the IC50 in assay [1] and in assay [2] was more than 100 µM each time. Further, the Ki at Glutamate NMDA receptor was more than 100 µM.
